{"source": "patent US9365614B2", "about": "“IAP BIR domain binding compounds” (priority 2006, dated 2016)", "key": {"[1]": {"molecular_target": "T1, XIAP linker BIR2-BIR3-ring (GST-linker BIR 2 BIR3Ring) (Homo sapiens, UniProt P98170)", "T1 construct": "made in house; host or cells: E. coli DH5-alpha", "T1 sequence (P98170 93-497)": "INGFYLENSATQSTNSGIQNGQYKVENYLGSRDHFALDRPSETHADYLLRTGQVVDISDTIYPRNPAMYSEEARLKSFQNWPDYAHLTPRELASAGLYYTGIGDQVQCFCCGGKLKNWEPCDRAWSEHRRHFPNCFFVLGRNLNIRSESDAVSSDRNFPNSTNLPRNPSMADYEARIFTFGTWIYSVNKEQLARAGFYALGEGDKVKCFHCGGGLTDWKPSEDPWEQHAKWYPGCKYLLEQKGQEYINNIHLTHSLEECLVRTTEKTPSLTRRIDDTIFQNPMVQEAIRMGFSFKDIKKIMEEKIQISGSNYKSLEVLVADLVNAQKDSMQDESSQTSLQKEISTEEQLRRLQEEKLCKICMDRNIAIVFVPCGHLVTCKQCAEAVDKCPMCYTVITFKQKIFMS", "experiment": "Fluorescence polarization competition assay, BIR2-BIR3-ring, probe P2", "format": "binding", "conditions": "BIR2-BIR3-ring FP assay", "excerpt": "GST-linker BIR 2 BIR3Ring: XIAP coding sequence from amino acids 93-497 cloned into PGex4T1 via BamH1 and XhoI. Amino acids 93-497 were amplified from full length XIAP in pGex4t3, using the primers: […] (SEQ ID NO: 7) and GCTGCATGTGTGTCAGAGG (SEQ ID NO: 8), using standard PCR conditions. The PCR fragment was TA cloned into pCR-2.1 (invitrogen). Linker BIR 2 BIR 3Ring was subcloned into pGex4T1 by BamHI/XhoI digestion. The plasmid was transformed into E. coli DH5a for use in protein expression and purification.\nFor all assays, the fluorescence and fluorescence-polarization was evaluated using a Tecan Polarion instrument with the excitation filter set at 485 nm and the emission filter set at 535 nm. […] Upon establishing these conditions, the compounds potency (IC50) and selectivity, was assessed in the presence of a fix defined-amount of target protein and fluorescent probe and a 10 point serial dilution of the selected compounds. […] Auto-fluorescence for each compound was first assessed by performing a reading of the compound/BSA solution alone. Then 25 uL of the fluorescein probe diluted into 50 mM MES containing 0.05 mg/ml BSA were added and a reading to detect quenching of fluorescein signal done. […]\nThe ki of various compounds in the BIR2-BIR3-ring FP assay, using probe P2, was determined as described above."}, "[2]": {"system": "PC3 cells", "experiment": "Survival assay (MTS), PC3", "format": "cell-based", "conditions": "Homo sapiens, PC-3; in the presence of TRAIL (1-3 ng/ml)", "procedure": "(§1) Survival assays were performed on various cell lines including MDA-MB-231, SKOV3, H460, PC3, HCT-116, and SW480 cells. Cells were seeded in 96 well plates at a respective density of 5000 and 2000 cells per well and incubated at 37° C. in presence of 5% CO2 for 24 hours. Selected compounds were diluted into the media at various concentration ranging from 0.01 uM up to 100 uM. Diluted compounds were added onto the MDA-MB-231 cells. For the MDA-MB-231 SKOV3, H460, PC3, HCT-116, and SW480 cells, the compounds were added either alone or in presence of 1-3 ng/ml of TRAIL. After 72 hours cellular viability was evaluated by MTS based assays. A solution of [3-(4,5-dimethylthiazol-2-yl)-5-(3-carboxymethoxyphenyl)-2-(4-sulfophenyl)-2H-tetrazolium, inner salt; MTS] was added onto cells for a period of 1 to 4 hours. Upon incubation the amount of converted MTS was evaluated using a Tecan spectrophotometer set at 570 nm."}, "[3]": {"system": "MDA-MB231 cells", "experiment": "Survival MTT assay, MDA-MB-231", "format": "cell-based", "conditions": "Homo sapiens, 72 h", "procedure": "(§2) One day prior the treatment with compound, 2000 to 4000 cells per well were plated in a tissue culture treated 96 well format dish with 100 ul of media and incubated at 37° C., 5% CO2. On the day of compound treatment, compounds were diluted with cell culture media to a working stock concentration of 2×. 100 uL of diluted compound were then added to each well. The treated plate was incubated for 72 h at 37° C., 5% CO2. Upon incubation, the cell viability was assessed as followed 20 uL of MTT reagent at 5 mg/ml were added per well to cell plate. The plate was incubated for 2 h at 37° C. in presence of 5% CO2. The supernatant was then removed from the plate and 100 uL of isopropanol were added. The absorbance was measured in a TECAN spectrophotometer at 570 nm. The percentage of viability was expressed in percentage of the signal obtained with non treated cells."}, "[4]": {"system": "SKOV-3 cells", "experiment": "Survival MTT assay, SKOV-3", "format": "cell-based", "conditions": "Homo sapiens, SK-OV-3, 72 h, read-out: EC50 against SKOV3", "procedure": "as §2"}, "[5]": {"system": "HELA (cervical) cells", "experiment": "Survival assay with TRAIL, HELA", "format": "cell-based", "conditions": "Homo sapiens, in the presence of TRAIL (1-3 ng/mL)", "procedure": "as §1"}, "[6]": {"system": "HCT116 (colon) cells", "experiment": "Survival assay with TRAIL, HCT116", "format": "cell-based", "conditions": "Homo sapiens, HCT-116; in the presence of TRAIL (1-3 ng/mL)", "procedure": "as §1"}, "[7]": {"system": "OVCAR-3 (ovarian) cells", "experiment": "Survival assay with TRAIL, OVCAR-3", "format": "cell-based", "conditions": "Homo sapiens, in the presence of TRAIL (1-3 ng/mL)"}, "[8]": {"system": "HEY (ovarian) cells", "experiment": "Survival assay with TRAIL, HEY", "format": "cell-based", "conditions": "in the presence of TRAIL (1-3 ng/mL)", "procedure": "as §1"}, "[9]": {"system": "H460 (lung) cells", "experiment": "Survival assay with TRAIL, H460", "format": "cell-based", "conditions": "Homo sapiens, NCI-H460; in the presence of TRAIL (1-3 ng/mL)", "procedure": "MDA-MD-231 (breast) and H460 (lung) cancer cells were cultured in RPMI1640 media supplemented with 10% FBS and 100 units/mL of Penicillin and Steptomycin.\nas §1"}}, "note": "pEC50, pKi: −log10 of the molar value."}
{"compound": "CN[C@@H](C)C(=O)N[C@H](C(=O)N1C[C@@H](NC(=O)c2ccc(C(=O)N[C@H]3C[C@@H](C(=O)N[C@@H]4CCCc5ccccc54)N(C(=O)[C@@H](NC(=O)[C@H](C)NC)C(C)(C)C)C3)cc2)C[C@H]1C(=O)N[C@@H]1CCCc2ccccc21)C(C)(C)C", "note": "[Compound 3]", "values": [{"measurement": "pKi", "setting": "[1]", "value": "> 7.00"}, {"measurement": "pEC50", "setting": "[2]", "value": "> 6.00"}, {"measurement": "pEC50", "setting": "[3]", "value": "> 7.30"}, {"measurement": "pEC50", "setting": "[4]", "value": 9.00}, {"measurement": "pEC50", "setting": "[5]", "value": "> 6.00"}, {"measurement": "pEC50", "setting": "[6]", "value": "> 6.00"}, {"measurement": "pEC50", "setting": "[7]", "value": "> 6.00"}, {"measurement": "pEC50", "setting": "[8]", "value": "> 6.00"}, {"measurement": "pEC50", "setting": "[9]", "value": "> 6.00"}]}
